# Test results: article PMC10447463, “Data-mining unveils structure–property–activity correlation of viral infectivity enhancing self-assembling peptides” (Nature Communications, 2023)
# Assays:
# TZM-bl cells = assay type: cell-based; details: CellTiter-Glo, mean of n = 3 replicates; for viability 0.26 µM: peptide 0.26 µM; for viability 1.3 µM: peptide 1.3 µM; for viability 6.5 µM: peptide 6.5 µM
# Method: The cell viability after addition of peptides to TZM–bl cells was studied via the CellTiter–Glo assay. To this end, 10,000 cells were seeded and on the next day serial diluted peptides were added. After 3 days the supernatant was removed and 100 µL CellTiter–Glo Reagent 1:1 diluted in PBS was added. After 10 min 50 µL was transferred to white microplate and luminescence was recorded by Orion microplate luminometer.
# 2. Cell Viability of Representatively Selected Peptides
# Figure S 2 Cell Viability normalized to 100% metabolic activity as determined by CellTiterGlo Assay of 57 representatively selected peptides from the library. The selection represents infectivity enhancing and not […]
# concentration. Error bars indicate standard deviation from triplicate measurements. Source data for Figure S2 […]
# Figure S3 Cell Viability normalized to 100% metabolic activity determined by CellTiterGlo Assay of 20 peptides reported in literature. 33,34,43–48,35–42 Cell viability (> 80%) is maintained for all peptides at 1.3 µM concentration regardless of the preparation method, which is A PNF formation method by dilution of 10 mg/mL peptide stock in DMSO in PBS to 1 mg/mL or B preparation according to literature reported protocol (SI Section 8). Error bars indicate standard deviation from triplicate measurements. Source data for Figure S3 is provided.
# [1] = test system: HIV-1 infection of TZM-bl cells; assay: HIV-1 infectivity enhancement assay, β-galactosidase luminescence; assay type: cell-based; details: for Log10 Infection Rel EF-C: log10 of infection relative to EF-C, Figure 7B; for Inf. rel. EF-C: n-fold infection vs virus only, relative to that of EF-C, 1.3 µM peptide; for Abs Infection at 0.26µM: peptide 0.26 µM; for Abs Infection at 0.26µM / Abs Infection at 1.3 µM / Abs Infection at 6.5 µM: mean of n = 3, Figure 7A; for Abs Infection at 1.3 µM: peptide 1.3 µM; for Abs Infection at 6.5 µM: peptide 6.5 µM
# [2] = assay type: physicochemical; set-up: key to Fibril / Fibril Formation / TEM 2cat / Fibril: 1 = fibrils present; 0 non-fibrillar structures; details: TEM, 1 mg/mL, uranyl acetate stain, qualitative
# Method: For ATR FT–IR spectroscopy measurements, 200 µL of the respective 1 mg/mL PNF solution was lyophilized and the resulting powder used for measurement. All spectra were recorded on a Bruker Tensor 27 spectrometer with a diamond crystal as ATR element (PIKE MiracleTM, spectral resolution 2 cm^-1). Every sample was measured with 64 scans. Data were analyzed with OriginLab software and calculation of β–sheet content was conducted according to a previous report. TEM. For TEM measurements 5 µL of PNF fibrils (1 mg/mL) were placed on copper grids coated with carbon and formvar layer (300 mesh, Plano GmbH). After 10 min incubation time, the grids were staining with 4% uranyl acetate solution for 2.5 min and washed with water. Measurements were performed on a Jeol 1400 electron microscope with 120 kV acceleration voltage. CR Assay. For the determination of the amount of peptide monomer converting into nanostructures the amine reactive dye fluorescamine was used analogous to a previous reported protocol. Briefly, 100 µL of the preformed PNF solution was centrifuged in a Vivaspin 500 tube (3 kDa MWCO) to separate fibers from free peptide monomer (16200 x g, 4 °C, 45 min). The filtrate and 100 μL of the non-filtered PNF sample were lyophilized and dissolved in 30 μL DMSO. 10 μL of the filtrate and non-filtered DMSO samples were submitted in a black UV Star® 384 microliter well–plates (Greiner bio–one) and 3 μL of the fluorescamine solution (10 mg/mL, DMSO) was added to measure the fluorescence enhancement. After 20 min of incubation at RT, fluorescence was recorded on an Infinite® M1000 PRO microplate reader (Tecan) at λem = 470 nm upon excitation at λex = 365 nm with 10 nm bandwidths and multiple reads per well (3×3). Measurements were repeated in triplicates and averaged with standard deviation. All values were calculated as n-fold fluorescence enhancement (DMSO only as a reference was set to 1). The conversion rate CR was defined according to the equation Eq. (3).3 CR=100−100×fluorescenceintensityfiltrate/fluorescenceintensityoriginal[%]
# (§1) 1. Remarks on experimental parameters and bioinformatic descriptors
# 1.1 Experimental parameters
# Transmission electron microscopy (TEM) measurements. TEM measurements were used to control if peptides assemble. The assemblies were categorized in non -fibrillar structures (no assembly, […]
# grid but only amorphous aggregates. In contrast, peptides defined as fibrillar may also include amorphous structures. Amongst nonfibrillar assemblies also amorphous aggregates are summarized.
# Amorphous aggregates are defined as structures with high β-sheet content which lack long-range order, that is crystallinity or fibril formation. It is generally assumed that these structures might be
# [3] = Zeta-potential measurement; assay type: physicochemical; set-up: Zeta-Potential: unit not given here; details: for Zeta-Potential / mV: mean, Figure 7B
# Method: (§2) 4 µL of 1 mg/mL peptide fibrils solution is added to a 20 µL, 50 µM ThT–solution in PBS. The mixture is incubated for 15 min at RT to allow binding of ThT dye with β–sheet rich structures. For reference PBS (4 µL) was added instead of peptide fibril solution. The samples were placed in black UV Star® 384 microliter well–plates (Greiner bio–one). Fluorescence spectra were recorded on an Infinite® M1000 PRO microplate reader (Tecan) at λem = 488 nm upon excitation at λex = 440 nm with 10 nm bandwidths and multiple reads per well (3×3). Measurements were repeated in triplicates and averaged with standard deviation. […] Zeta-Potential. For the determination of the surface charge of aggregated peptides zeta-potential measurements were conducted with a Zetasizer Nano ZS, Malvern Instruments. Unless stated otherwise the peptides were dissolved from DMSO (10 mg/mL) in PBS (pH 7.4) to concentration of 1 mg/mL and incubated for 1d at RT. Just before the measurement the 60 µL of the peptides were further diluted in 600 µL KCl (aq, 1 mM) in a 1 mL disposable folded capillary cells (DTS–1060, Zetasizer Nano series, Malvern). The zeta potential of the peptides was derived from the electrophoretic mobility based on the Smoluchowski formula. All measurements were averaged over two individually performed experiments and conducted in triplicates for each sample. Aggregate analysis. […] Furthermore, fluorescence microscopy was conducted by staining 1 µL preformed fibrils (1 mg/mL) with 9 µL ThT (50 µM). Brightfield microscopy was performed simultaneously to evaluate aggregation also for non ThT-active fibrils. The measurements were performed on a Leica DMi8 microscope with 10x air objective and equipped with a Leica MC170 HD camera with a filter setting λem = 527/30 nm upon excitation at λex = 480/40 nm) and processed with the Leica LASX software. To quantify size and number of microscopic aggregation of particles > 10 µm^2 at least 3 independently measured images were analyzed via the 3D object counter analysis tool of ImageJ, v 1.53f51. Sum–frequency generation. The SFG experiments were carried out with a femtosecond Ti: Sapphire amplified laser system (Spitfire Ace, Spectra–Physics, 800 nm, 40 fs, 1 kHz) with 5 W output power. We used 2 W to pump an optical parametric amplifier (TOPAS, light conversion) with a non–collinear difference frequency generation stage to generate broadband IR pulses. Another 1 W of the laser output passed through an etalon to generate narrowband visible pulses (10 cm^-1). The incident angles of the visible and IR beams were 36° and 41° with respect to the surface normal, respectively. The visible (13 µJ) and IR (5 µJ) pulses were overlapped spatially and temporally at the sample position. Subsequently, the generated SFG pulse was guided into a spectrograph (Acton SP 300i, Princeton Instruments), and detected with an EMCCD (Newton, Andor Technology). To avoid IR absorption of water vapor, we purged N2 for the measurement. All spectra were collected in the ssp (denoting s-, s- and p-polarized SFG, visible and IR, respectively) polarization combination. The spectra were normalized to the non–resonant signal taken from z–cut quartz after subtracting a background spectrum. […]
# [4] = Turbidity, derived count rate of scattered light; assay type: physicochemical; details: for Count Rate / kcps: derived count rate of scattered light at 633 nm, 173°, from zeta-potential measurement, 0.1 mg/mL in 1 mM KCl after 1 d at 1 mg/mL in PBS, turbidity / microscopic aggregation, mean of triplicate; for Count Rate: derived count rate of scattered light
# Method: as §2
# ways to determine turbidity of samples, this can be via transmittance and via scattering. Transmittance […]
# as it is an easy and fast method.10,11 However, transmittance contributes not only from µm-sized aggregates but also nm-sized aggregates such as distinct fibrils, which makes hard to distinguish between fibril formation and micrometer sized aggregation. Although dynamic light scattering is a frequently applied method for determination of particle size, it cannot be conducted in solutions with anisotropic aggregates in micrometer size range, since the Stokes-Einstein relation is only applicable for homogeneous […] spherical particles.12 Further models describing scattering intensity and […]
# [5] = Turbidity, derived count rate of scattered light; assay type: physicochemical; details: log10 of derived count rate of scattered light, Figure 7B
# [6] = assay type: physicochemical; details: ThT-active if fluorescence at least twice the control
# Method: 4 µL of 1 mg/mL peptide fibrils solution is added to a 20 µL, 50 µM ThT–solution in PBS. The mixture is incubated for 15 min at RT to allow binding of ThT dye with β–sheet rich structures. For reference PBS (4 µL) was added instead of peptide fibril solution. The samples were placed in black UV Star® 384 microliter well–plates (Greiner bio–one). Fluorescence spectra were recorded on an Infinite® M1000 PRO microplate reader (Tecan) at λem = 488 nm upon excitation at λex = 440 nm with 10 nm bandwidths and multiple reads per well (3×3). Measurements were repeated in triplicates and averaged with standard deviation. […] Zeta-Potential. For the determination of the surface charge of aggregated peptides zeta-potential measurements were conducted with a Zetasizer Nano ZS, Malvern Instruments. Unless stated otherwise the peptides were dissolved from DMSO (10 mg/mL) in PBS (pH 7.4) to concentration of 1 mg/mL and incubated for 1d at RT. Just before the measurement the 60 µL of the peptides were further diluted in 600 µL KCl (aq, 1 mM) in a 1 mL disposable folded capillary cells (DTS–1060, Zetasizer Nano series, Malvern). The zeta potential of the peptides was derived from the electrophoretic mobility based on the Smoluchowski formula. All measurements were averaged over two individually performed experiments and conducted in triplicates for each sample. Aggregate analysis. […] Furthermore, fluorescence microscopy was conducted by staining 1 µL preformed fibrils (1 mg/mL) with 9 µL ThT (50 µM). Brightfield microscopy was performed simultaneously to evaluate aggregation also for non ThT-active fibrils. The measurements were performed on a Leica DMi8 microscope with 10x air objective and equipped with a Leica MC170 HD camera with a filter setting λem = 527/30 nm upon excitation at λex = 480/40 nm) and processed with the Leica LASX software. To quantify size and number of microscopic aggregation of particles > 10 µm^2 at least 3 independently measured images were analyzed via the 3D object counter analysis tool of ImageJ, v 1.53f51. Sum–frequency generation. The SFG experiments were carried out with a femtosecond Ti: Sapphire amplified laser system (Spitfire Ace, Spectra–Physics, 800 nm, 40 fs, 1 kHz) with 5 W output power. We used 2 W to pump an optical parametric amplifier (TOPAS, light conversion) with a non–collinear difference frequency generation stage to generate broadband IR pulses. Another 1 W of the laser output passed through an etalon to generate narrowband visible pulses (10 cm^-1). The incident angles of the visible and IR beams were 36° and 41° with respect to the surface normal, respectively. The visible (13 µJ) and IR (5 µJ) pulses were overlapped spatially and temporally at the sample position. Subsequently, the generated SFG pulse was guided into a spectrograph (Acton SP 300i, Princeton Instruments), and detected with an EMCCD (Newton, Andor Technology). To avoid IR absorption of water vapor, we purged N2 for the measurement. All spectra were collected in the ssp (denoting s-, s- and p-polarized SFG, visible and IR, respectively) polarization combination. The spectra were normalized to the non–resonant signal taken from z–cut quartz after subtracting a background spectrum.
# as §1
Substance,viability 0.26 µM (TZM-bl cells),viability 1.3 µM (TZM-bl cells),viability 6.5 µM (TZM-bl cells),Log10 Infection Rel EF-C [1],Inf. rel. EF-C [1],Abs Infection at 0.26µM [1],Abs Infection at 1.3 µM [1],Abs Infection at 6.5 µM [1],Zeta-Potential / mV [3],Count Rate / kcps [4],Log10 Count Rate [5],also measured
QCKIKQIINMWQ [EF-C (Münch Stock)],102,94.89,78.3,–,–,–,–,–,–,–,–,–
ISKLEYSNFSVRY [reference compound],–,–,–,-0.26,0.54,23820,58613.33333,157450,9.33 mV,7807 kcps,3.893,"Fibril / Fibril Formation [2]: 1; Zeta pot. / mV ([3]; 1 mg/mL in PBS pH 7.4 from 10 mg/mL DMSO stock, 1 d RT, 60 µL diluted in 600 µL 1 mM KCl, Zetasizer Nano ZS, Smoluchowski, mean of triplicate): 9.3 mV"
CKIW [TM81],106.2,107.1,100.6,–,–,–,–,–,–,–,–,"infectivity ([1]; infectivity class (low / medium / high) of the peptide in the sequence-pattern analysis, Fig. S22-A4, class limits not given): low; Log10 Inf. rel. to EF-C ([1]; log10 of HIV-1 infection of TZM-bl cells relative to EF-C, Fig S15 source data, asymmetric std dev errors): -1.286; Zeta-pot. / mV ([3]; zeta potential of peptide, Fig S15 source data): -3.71 mV"
LANWMCLAKW [reference compound],–,–,–,-0.4,0.40,44873.33333,80126.66667,133423.3333,14.73 mV,15062 kcps,4.178,"ThT Cat. / ThT-Fluorescence (categorical) [6]: 1 (ThT. Cat is 1, if Rel. ThT >2); Zeta Potential ([3]; mean of n = 3): 14.73; Zeta-Potential ([3]; replicate 1): 14.5; Zeta-Potential ([3]; replicate 2): 14.6; Zeta-Potential ([3]; replicate 3): 15.1; Count Rate ([4]; mean of n = 3): 15061.73333 kcps; Count Rate ([4]; replicate 1): 20482.8 kcps; Count Rate ([4]; replicate 2): 10116.2 kcps; Count Rate ([4]; replicate 3): 14586.2 kcps"
